Some test systems named below: HCC-2998 colon; OVCAR-3 ovarian; CAKI-1 renal; SK-OV-3 ovarian; IGROV1 ovarian; NCI-H460 lung; SNB-19 CNS; T-47D breast; SW-620 colon; UACC-62 melanoma.
Experiment in all cases: growth of human tumour cells (NCI), 48 h

Several values for one entry are separate records, joined by “and”; a condition that tells them apart may be missing. Equal values may be shown once.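 Step 1: Grow cells in 96-well plates. Step 2: Expose to compound for 48 hours at 5 concentrations. Step 3: Interpolate endpoints linearly; if unreached, use highest concentration. Here, GI50 denotes the concentration required for 50% inhibition of growth. TGI marks complete inhibition of growth.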

Regarding `O=C(Nc1ccc([N+](=O)[O-])cc1Cl)c1cc(Cl)ccc1O`, the GI50 is 0.215 µM and 0.452 µM in the test on HCC-2998 colon; 0.141 µM and 0.283 µM in the test with OVCAR-3 ovarian; 0.108 µM and 0.227 µM in the test on CAKI-1 renal; 0.15 µM and 0.234 µM in the test with SK-OV-3 ovarian; 0.229 µM and 0.294 µM in the test with IGROV1 ovarian; 0.134 µM and 0.213 µM in the test with NCI-H460 lung. The GI50 was 0.164 µM and 0.248 µM in the test on SNB-19 CNS; 0.107 µM and 0.188 µM in the test on T-47D breast; 0.163 µM and 0.333 µM in the test on SW-620 colon; 0.0773 µM and 0.0678 µM in the test on UACC-62 melanoma. Also, the TGI with HCC-2998 colon is 2.58 µM and 3.43 µM; in the test with OVCAR-3 ovarian it was 2.59 µM and 21.5 µM; in the test on CAKI-1 renal it was 4.21 µM; with SK-OV-3 ovarian, 0.66 µM; with IGROV1 ovarian, 18.7 µM and 8.49 µM; in the test with NCI-H460 lung, 5.98 µM. Besides, the TGI with SNB-19 CNS was 50 µM and > 100 µM; in the test with T-47D breast it was 0.361 µM and 0.836 µM; in the test with SW-620 colon, 15.5 µM and 11.9 µM; with UACC-62 melanoma, 0.568 µM and 0.392 µM.
As for `N/C(=N/O)NOCCC(N)C(=O)O` (centres undefined), the GI50 with HCC-2998 colon, with OVCAR-3 ovarian, in the test on CAKI-1 renal, with SK-OV-3 ovarian, with IGROV1 ovarian and in the test on NCI-H460 lung was over 100 µM in each case. The GI50 in the test on SNB-19 CNS, in the test with T-47D breast, with SW-620 colon and in the test with UACC-62 melanoma was over 100 µM each time. For the same compound, the TGI in the test with HCC-2998 colon, in the test with OVCAR-3 ovarian, in the test on CAKI-1 renal, in the test with SK-OV-3 ovarian, in the test on IGROV1 ovarian and in the test with NCI-H460 lung was over 100 µM throughout. The TGI with SNB-19 CNS, with T-47D breast, in the test with SW-620 colon and with UACC-62 melanoma was over 100 µM throughout.
Turning to `O=C(Nc1n[nH]c2cc(-c3ccc(F)cc3)ccc12)C1CC1`, the GI50 is 8.27 µM in the test with HCC-2998 colon; 6.33 µM with OVCAR-3 ovarian; 9.75 µM in the test with CAKI-1 renal; 6.24 µM with SK-OV-3 ovarian; over 21.8 µM with IGROV1 ovarian; 7.47 µM with NCI-H460 lung. The GI50 in the test with SNB-19 CNS was 12.6 µM; with T-47D breast it was 6.37 µM; in the test with SW-620 colon it was 7.69 µM; with UACC-62 melanoma it was 12.6 µM. Further, the TGI was over 25 µM with HCC-2998 colon; 20 µM with OVCAR-3 ovarian; over 25 µM in the test on CAKI-1 renal; 20.3 µM with SK-OV-3 ovarian; over 25 µM in the test on IGROV1 ovarian; over 25 µM in the test on NCI-H460 lung. In addition, the TGI in the test with SNB-19 CNS is over 25 µM; in the test with T-47D breast it was over 21.7 µM; with SW-620 colon, over 25 µM; with UACC-62 melanoma, over 25 µM.
With `COc1ccc(CC2OC3(CCCCC3)CC3CCCCN32)cc1` (centres undefined), the TGI in the test with HCC-2998 colon, in the test on OVCAR-3 ovarian, with CAKI-1 renal, in the test on SK-OV-3 ovarian, in the test on IGROV1 ovarian and in the test with NCI-H460 lung was over 100 µM each time. The TGI with SNB-19 CNS, with T-47D breast, in the test with SW-620 colon and with UACC-62 melanoma was over 100 µM each time.
As to `Cc1ccc(O)c(C(=O)/C=C/c2ccccc2)c1`, the TGI in the test on HCC-2998 colon, in the test on OVCAR-3 ovarian, with CAKI-1 renal, with SK-OV-3 ovarian, in the test on IGROV1 ovarian and with NCI-H460 lung was over 100 µM each time. In addition, the TGI in the test with SNB-19 CNS, in the test with T-47D breast, in the test on SW-620 colon and in the test with UACC-62 melanoma was over 100 µM each time.
In the case of `Cc1c(-c2c(F)cc(C(N)=O)c3[nH]c4c(c23)CC[C@H](C(C)(C)O)C4)cccc1-n1c(=O)c2cccc(F)c2n(C)c1=O`, the GI50 in the test with HCC-2998 colon was 2.81 µM; with OVCAR-3 ovarian, 3.95 µM; in the test on CAKI-1 renal, 2.08 µM; in the test on SK-OV-3 ovarian it was 6.35 µM; in the test with IGROV1 ovarian it was 3.19 µM; with NCI-H460 lung it was 3.43 µM. For the same compound, the GI50 in the test with SNB-19 CNS is 7.22 µM; in the test on T-47D breast it was 3.39 µM; in the test on SW-620 colon, 2.44 µM; in the test on UACC-62 melanoma, 3 µM. The TGI in the test on HCC-2998 colon is 51.5 µM; in the test with OVCAR-3 ovarian, over 100 µM; in the test on CAKI-1 renal, over 100 µM; in the test with SK-OV-3 ovarian it was over 100 µM; in the test on IGROV1 ovarian, over 100 µM; with NCI-H460 lung it was over 100 µM. Besides, the TGI in the test on SNB-19 CNS, in the test on T-47D breast, with SW-620 colon and in the test on UACC-62 melanoma was over 100 µM each time.
As for `Cc1ccccc1N=C(c1ccccc1)C1C(=O)c2ccccc2C1=O`, the GI50 with HCC-2998 colon was 19.2 µM; in the test with OVCAR-3 ovarian it was 1.32 µM; with CAKI-1 renal, 21 µM; with SK-OV-3 ovarian, 3.68 µM; with IGROV1 ovarian, 10.7 µM; in the test on NCI-H460 lung, 6.91 µM. The GI50 is 20.8 µM in the test with SNB-19 CNS, 4.12 µM in the test with T-47D breast, 25.3 µM in the test with SW-620 colon and 11.6 µM with UACC-62 melanoma. Moreover, the TGI was 54.2 µM in the test on HCC-2998 colon; 5.63 µM with OVCAR-3 ovarian; over 100 µM in the test on CAKI-1 renal; 77.2 µM in the test on SK-OV-3 ovarian; 39.4 µM in the test on IGROV1 ovarian; 38 µM with NCI-H460 lung. In addition, the TGI with SNB-19 CNS was over 100 µM; in the test with T-47D breast, 36.5 µM; in the test with SW-620 colon, over 100 µM; in the test on UACC-62 melanoma, 30.7 µM.
Regarding `O=[N+]([O-])c1ccc(NC(c2ccccc2)c2ccc3cccnc3c2O)cc1` (centres undefined), the GI50 in the test with HCC-2998 colon is 0.418 µM; with OVCAR-3 ovarian, 0.45 µM; with CAKI-1 renal, 0.312 µM; with SK-OV-3 ovarian it was 0.5 µM; in the test with IGROV1 ovarian, 0.388 µM; in the test on NCI-H460 lung, 0.253 µM. Also, the GI50 in the test on SNB-19 CNS is 0.551 µM; with T-47D breast, 0.633 µM; in the test with SW-620 colon, 0.389 µM; with UACC-62 melanoma it was 0.51 µM. The TGI with HCC-2998 colon was over 100 µM; with OVCAR-3 ovarian it was over 100 µM; with SK-OV-3 ovarian, over 100 µM; in the test on IGROV1 ovarian, over 51.5 µM; with NCI-H460 lung, 1.39 µM; with SNB-19 CNS it was over 100 µM. The TGI with T-47D breast, with SW-620 colon and in the test on UACC-62 melanoma was over 100 µM in each case.

For the origin of these results see PubChem BioAssay (NCI).
